Earlier results as cited in US6770729B2, “Polymer compositions containing bioactive agents and methods for their use” (priority 2002, dated 2004).

Target: avidin (Gallus gallus, UniProt P02701)
Sequence (P02701 25-152): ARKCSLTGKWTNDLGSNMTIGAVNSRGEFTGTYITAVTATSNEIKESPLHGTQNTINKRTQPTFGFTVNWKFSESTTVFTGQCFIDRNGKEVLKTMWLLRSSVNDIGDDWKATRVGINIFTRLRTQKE

For O=C(O)CCCC[C@@H]1SC[C@@H]2NC(=O)N[C@@H]21 [biotin], the binding constant (avidin tetramer binds 4 biotin molecules in solution, noncovalent interaction) is listed as “about 10^15 M^−1” and the half-life in vivo (avidin-biotin interaction, dissociation of the complex) is listed as “about 89 days”.
